Measurements published in patent US20190322676A1, “CERAMIDE GALACTOSYLTRANSFERASE INHIBITORS FOR THE TREATMENT OF DISEASE” (BioMarin Pharmaceutical Inc., priority 2016, published 2019).
pIC50: −log10 of the molar value. Where a name gives a salt, the structure may show the parent alone.

What follows are compounds tested against T1, human CGT (ceramide galactosyltransferase), CHO/CGT lysate (Homo sapiens, UniProt Q16880) (assay: CGT enzyme assay, RapidFire/MS/MS readout with 0.01% Tween added (Table 1 ranges with two asterisks **)). Settings: CGT enzymatic assay; range with two asterisks (**): RapidFire/MS/MS method with 0.01% Tween added.
T1 construct: Full-length human CGT cDNA was cloned into the BamH1/Xho1 site of pcDNA3.1 (+); expressed in transfected cells; host or cells: Chinese hamster ovary (CHO) cells; lysate prepared with M-PER
T1 sequence (Q16880 21-541): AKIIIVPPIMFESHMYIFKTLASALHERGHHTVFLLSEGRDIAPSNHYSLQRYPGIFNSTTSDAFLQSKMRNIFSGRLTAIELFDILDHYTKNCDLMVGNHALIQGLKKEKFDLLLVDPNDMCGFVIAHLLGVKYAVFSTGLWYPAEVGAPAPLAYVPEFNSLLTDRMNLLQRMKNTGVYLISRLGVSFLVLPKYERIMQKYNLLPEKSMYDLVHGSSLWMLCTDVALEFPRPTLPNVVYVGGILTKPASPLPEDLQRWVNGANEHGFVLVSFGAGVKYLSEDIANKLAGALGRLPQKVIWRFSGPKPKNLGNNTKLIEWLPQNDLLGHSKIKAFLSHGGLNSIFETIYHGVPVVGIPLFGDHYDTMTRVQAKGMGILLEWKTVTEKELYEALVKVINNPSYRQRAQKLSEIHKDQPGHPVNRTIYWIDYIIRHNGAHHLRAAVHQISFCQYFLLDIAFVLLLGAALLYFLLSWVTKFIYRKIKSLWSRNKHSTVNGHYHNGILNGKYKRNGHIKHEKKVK
Assay type: biochemical
Procedure: Full-length human CGT cDNA was cloned into the BamH1/Xho1 site of pcDNA3.1 (+) mammalian expression vector (V90-20, Invitrogen, Carlsbad, Calif.) and the plasmid was transfected into Chinese hamster ovary (CHO) cells. Lysate was prepared using M-PER (Mammalian Protein Extraction Reagent, ThermoFisher Scientific, Grand Island, N.Y.) in the presence of a protease inhibitor cocktail (P8340, Sigma, Saint Louis, Mo.). Each 100 mm dish (100% confluent, approximately 1×10^7 cells) was lysed with 250 μL of M-PER containing protease inhibitors. Protein concentration was determined using a Pierce BCA protein assay kit (ThermoFisher Scientific). Four micrograms of CHO/CGT lysate was incubated with various concentrations of a compound (0.001 μM-50 μM) in 10 mM HEPES (pH 7.2) containing 35 μM dioleoylphosphatidylcholine, 5 mM MgCl2, 5 mM MnCl2, 1% BSA, 15 mM KCl, 1 mM EGTA, 8 mM CHAPS, 10 μM C6-NBD-dihydro-ceramide and 17.5 μM UDP-galactose in a final reaction volume of 20 μL at 37° C. for 1 hour. The final concentration of DMSO was 0.5% in both compound-treated and mock-treated samples. Tween 80 (0.01%) was optionally added to the reaction mixture to help solubilize the compounds. Each individual reaction was diluted with 80 μL of methanol:acetronitrile (1:3) containing 5 μM N-docdecanoyl-NBD-galactosylceramide (internal standard) to stop the reaction. 200 μL H2O:acetonitile (1:1) was added to precipitate the protein. After sufficient mixing, the plates were centrifuged at 2469 g for 38 minutes, 200 μL of supernatant was transferred to a LC/MS 96-deep well plate and a second spin was performed at 2469 g for 10 minutes. The final supernatant was injected in triplicate for RapidFire/MS/MS analysis.
Quantitative Analysis Using the RapidFire/MS/MS Method:
The quantitative analysis of C6-NBD-dihydro-ceramide and C6-NBD-dihydro-galactosylceramide was performed on a Rapid Fire 360 high-throughput mass spectrometry system (Agilent Technologies, Palo Alto, Calif.) coupled with a API4000^+ triple quadrupole mass spectrometer (Applied Biosystems, Concord, Ontario, Canada). RapidFire software packages, including RapidFire Control panel, RapidFire UI and RapidFire Integrator (Agilent Technologies), were used to control the RapidFire instrument and to process data. Analyst 1.6.2 software packages (Applied Biosystems) were used to control the MS system and acquire MS data. […] of sample was loaded on a micro-scale C4 solid-phase extraction (SPE) cartridge (Agilent Technologies) and salts were removed using water supplemented with 0.1% formic acid at the flow rate of 1.5 mL/min for 3 sec. C6-NBD-dihydro-ceramide and C6-NBD-dihydro-galactosylceramide were co-eluted into the mass spectrometer using acetonitrile containing 0.1% formic acid at the flow rate of 1.0 mL/min for 3 sec. The total cycle time of one injection was 8 secs. The MS/MS detection was performed in ESI negative mode. The mass transition of C6-NBD-dihydro-galactosylceramide was m/z 752.6→678.6 using a −40 V collision energy, the mass transition of C6-NBD-dihydro-ceramide was m/z 590.6→115.8 using a −40 V collision energy and the mass transition of N-docdecanoyl-NBD-galactosylceramide was m/z 820.9→746.3 using a −45 V collision energy.
The C6-NBD-dihydro-galactosylceramide reading was normalized first by dividing the peak area of C6-NBD-dihydro-galactosylceramide by the peak area of the internal standard, N-docdecanoyl-NBD-galactosylceramide. IC50 values (see Table 1, where data ranges with one asterix (*) correspond to analysis using the RapidFire/MS/MS method, and data ranges with two asterixes (**) correspond to analysis using the RapidFire/MS/MS method with 0.01% Tween added) were generated from sigmoidal dose-response curves (variable slope) with GraphPad Prism software (GraphPad Software, Inc., San Diego, Calif.) using the normalized peak areas of C6-NBD-dihydro-galactosylceramide or the percent inhibition of C6-NBD-dihydro-galactosylceramide accumulation relative to DMSO control. […]

SMILES | pIC50
NC1CC2CCC(C1)N2C(=O)[C@@H](NC(=O)C(=O)c1ccc2cc(OC3CCCC3)ccc2c1)C(F)(F)c1ccc2cc(Br)ccc2c1 (stereo partly drawn) [Compound 160-1, N-((2R)-3-(3-amino-8-azabicyclo[3.2.1]octan-8-yl)-1-(6-bromonaphthalen-2-yl)-1,1-difluoro-3-oxopropan-2-yl)-2-(6-(cyclopentyloxy)naphthalen-2-yl)-2-oxoacetamide trifluoroacetate] | 4.52 to 5.00
NC1CCN(C(=O)[C@@H](NS(=O)(=O)c2ccc(CCOC3CCCC3)cc2)C(F)(F)c2ccc(-c3ccc(Cl)cc3)cc2)CC1 [Compound 185-1, (R)-N-(3-(4-aminopiperidin-1-yl)-1-(4′-chloro-[1,1′-biphenyl]-4-yl)-1,1-difluoro-3-oxopropan-2-yl)-4-(2-(cyclopentyloxy)ethyl)benzenesulfonamide] | 4.52 to 5.00
NC1CCN(C(=O)[C@@H](NS(=O)(=O)c2ccc3cc(OC4CCCC4)ccc3c2)C(F)(F)c2ccc(Cl)c(OC3CCCC3)c2)CC1 [Compound 170-1, (R)—N-(3-(4-aminopiperidin-1-yl)-1-(4-chloro-3-(cyclopentyloxy)phenyl)-1,1-difluoro-3-oxopropan-2-yl)-6-(cyclopentyloxy)naphthalene-2-sulfonamide trifluoroacetate] | 5.00 to 6.00
N[C@H]1[C@@H]2CC[C@H]1CN(C(=O)[C@@H](NS(=O)(=O)c1ccc3cc(OC4CCCC4)ccc3c1)C(F)(F)c1ccc(-c3ccc(Cl)cc3)cc1)C2 [Compound 184-1, N-((R)-3-((1R,5S,8R)-8-amino-3-azabicyclo[3.2.1]octan-3-yl)-1-(4′-chloro-[1,1′-biphenyl]-4-yl)-1,1-difluoro-3-oxopropan-2-yl)-6-(cyclopentyloxy)naphthalene-2-sulfonamide] | 5.00 to 6.00
NC1CC2CCC(C1)N2C(=O)[C@@H](NC(=O)[C@H](O)c1ccc(OCC2CCCCC2)cc1)C(F)(F)c1ccc(-c2ccc(Cl)cc2)cc1 (stereo partly drawn) [Compound 152-1, (2R)—N-((2R)-3-(3-amino-8-azabicyclo[3.2.1]octan-8-yl)-1-(4′-chloro-[1,1′-biphenyl]-4-yl)-1,1-difluoro-3-oxopropan-2-yl)-2-(4-(cyclohexylmethoxy)phenyl)-2-hydroxyacetamide trifluoroacetate] | 5.00 to 6.00
N[C@H]1CC2CCC1N2C(=O)[C@@H](NS(=O)(=O)c1ccc2cc(OC3CCCC3)ccc2c1)C(F)(F)c1ccc(-c2ccc(Cl)cc2)cc1 (stereo partly drawn) [Compound 180-1, N-((2R)-3-((2S)-2-amino-7-azabicyclo[2.2.1]heptan-7-yl)-1-(4′-chloro-[1,1′-biphenyl]-4-yl)-1,1-difluoro-3-oxopropan-2-yl)-6-(cyclopentyloxy)naphthalene-2-sulfonamide] | 5.00 to 6.00
C=C(c1ccc(C(F)(F)[C@@H](NS(=O)(=O)c2ccc3cc(OC4CCCC4)ccc3c2)C(=O)N2CCC(N)CC2)cc1)C(F)(F)F [Compound 166-2, (S)—N-(3-(4-aminopiperidin-1-yl)-1,1-difluoro-3-oxo-1-(4-(3,3,3-trifluoroprop-1-en-2-yl)phenyl)propan-2-yl)-6-(cyclopentyloxy) naphthalene-2-sulfonamide] | 5.00 to 6.00
CCOc1cc(-c2ccc(C(F)(F)[C@H](NS(=O)(=O)c3ccc4cc(OC5CCCC5)ccc4c3)C(=O)N3CCC(N)CC3)cc2)ccc1Cl [Compound 154-1, (R)—N-(3-(4-aminopiperidin-1-yl)-1-(4′-chloro-3′-ethoxy-[1,1′-biphenyl]-4-yl)-1,1-difluoro-3-oxopropan-2-yl)-6-(cyclopentyloxy)naphthalene-2-sulfonamide trifluoroacetate] | 5.00 to 6.00
N[C@H]1CCN(C(=O)[C@@H](NS(=O)(=O)c2ccc(OCC3CCCCC3)cc2)C(F)(F)c2ccc(-c3ccc(Cl)cc3)cc2)C1 [Compound 171-1, N—((R)-3-((S)-3-aminopyrrolidin-1-yl)-1-(4′-chloro-[1,1′-biphenyl]-4-yl)-1,1-difluoro-3-oxopropan-2-yl)-4-(cyclohexylmethoxy)benzenesulfonamide trifluoroacetate] | 5.00 to 6.00
O=C([C@H](NS(=O)(=O)c1ccc(OCC2CCCCC2)cc1)C(F)(F)c1ccc(-c2ccc(Cl)cc2)cc1)N1C[C@H]2CNC[C@H]2C1 [Compound 179-2, N—((S)-1-(4′-chloro-[1,1′-biphenyl]-4-yl)-1,1-difluoro-3-((3aR,6aS)-hexahydropyrrolo[3,4-c]pyrrol-2(1H)-yl)-3-oxopropan-2-yl)-4-(cyclohexylmethoxy)benzenesulfonamide trifluoroacetate] | 4.00 to 4.52
O=C([C@@H](NS(=O)(=O)c1ccc2cc(OC3CCCC3)ccc2c1)C(F)(F)c1ccc(-c2ccc(Cl)cc2)cc1)N1CCC12CNC2 [Compound 191-1, (R)-N-(1-(4′-chloro-[1,1′-biphenyl]-4-yl)-1,1-difluoro-3-oxo-3-(1,6-diazaspiro[3.3]heptan-1-yl)propan-2-yl)-6-(cyclopentyloxy)naphthalene-2-sulfonamide] | > 6.00
N[C@@H]1CCN(C(=O)[C@@H](NS(=O)(=O)c2ccc(OCC3CCCCC3)cc2)C(F)(F)c2ccc(Cl)cc2)C1 [Compound 189-1, N-((R)-3-((R)-3-aminopyrrolidin-1-yl)-1-(4-chlorophenyl)-1,1-difluoro-3-oxopropan-2-yl)-4-(cyclohexylmethoxy)benzenesulfonamide] | 5.00 to 6.00
N[C@@H]1CCN(C(=O)[C@H](NS(=O)(=O)c2ccc(OCC3CCCCC3)cc2)C(F)(F)c2ccc(-c3ccc(Cl)cc3)cc2)C1 [Compound 155-2, N—((S)-3-((R)-3-aminopyrrolidin-1-yl)-1-(4′-chloro-[1,1′-biphenyl]-4-yl)-1,1-difluoro-3-oxopropan-2-yl)-4-(cyclohexylmethoxy) benzenesulfonamide trifluoroacetate] | 5.00 to 6.00
CC(C)Oc1cc(C(F)(F)[C@H](NS(=O)(=O)c2ccc3cc(OC4CCCC4)ccc3c2)C(=O)N2CCC(N)CC2)ccc1Cl [Compound 172-1, (R)—N-(3-(4-aminopiperidin-1-yl)-1-(4-chloro-3-isopropoxyphenyl)-1,1-difluoro-3-oxopropan-2-yl)-6-(cyclopentyloxy)naphthalene-2-sulfonamide trifluoroacetate] | 5.00 to 6.00
COc1cc(C(F)(F)[C@@H](NS(=O)(=O)c2ccc(OCC3CCCCC3)cc2)C(=O)N2C[C@H]3CNC[C@H]3C2)ccc1-c1ccc(Cl)cc1 [Compound 190-2, N-((S)-1-(4′-chloro-2-methoxy-[1,1′-biphenyl]-4-yl)-1,1-difluoro-3-((3aR,6aS)-hexahydropyrrolo[3,4-c]pyrrol-2(1H)-yl)-3-oxopropan-2-yl)-4-(cyclohexylmethoxy)benzenesulfonamide] | 4.00 to 4.52
